Assay results published in BindingDB's records for doi:10.1021/np980173q (Kagoshima University, 1998).

Test system: Enterococcus faecalis
Assay: Antimicrobial activity against Enterococcus faecalis 12964

CC(=CCn1c[n+](C)c2ncnc(N)c21)CC[C@@]1(C)[C@H](C)CC[C@@]2(C)C(C)=CCC[C@H]12 [AGELASINE B]
IC50: 13.7 µM
